The values below come from patent publication US20120077738A1, “COMPOSITIONS AND METHODS FOR […] SUSCEPTIBILITY TO ANTIVIRAL AGENTS” (priority 2010, published 2012).

In this assay the test system is genotype 1 HCV. The assay can be described thus: HCV outcome after liver transplant in HIV/HCV coinfected patients by calcineurin inhibitor. In kind it is in vivo, human. From the text:
Calcineurin Inhibition Use posttransplant in HIV/HCV infected patients. Eighty HIV/HCV coinfected patients received liver transplants as part of the HIV and transplantation trial from 2003-2009. Of these patients 61 were infected with genotype 1 HCV and received only a liver (not liver+kidney) and are further described here and in the corresponding data shown in FIGS. 1-14.

SMILES strings stand for the structures.

As for `C=CC[C@@H]1/C=C(\C)C[C@H](C)C[C@H](OC)[C@H]2O[C@@](O)(C(=O)C(=O)N3CCCC[C@H]3C(=O)O[C@H](/C(C)=C/[C@@H]3CC[C@@H](O)[C@H](OC)C3)[C@H](C)[C@@H](O)CC1=O)[C@H](C)C[C@@H]2OC` [Tacrolimus], the failed interferon therapy (by calcineurin inhibitor started immediately post transplant, two of the CsA group had switched to Tacrolimus) is listed as 13 patients. Moreover, under “patients on Tacrolimus immediately post transplant who received interferon based therapy”, the “Sustained Virologic Response (negative HCV PCR 6 months or more after HCV therapy was stopped)” value was “one patient out of these 14”.
